In patent publication US8030498B2, “Benzoylpyrazole compounds and herbicides containing them” (Ishihara Sangyo Kaisha, Ltd., priority 2005, dated 2011):

What was measured:
[1] = test system: wheat (Triticum spp.); assay: Test Example 1: foliar treatment, growth inhibition rate, wheat; type: in vivo; settings: 31 g/ha active ingredient, visually observed 17th to 23rd day after application
Summary of the method: (§1)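 Post-emergence foliar spray, pot test; WP/EC formulation in water at 500 L/ha, + 0.1 vol % spreader; leaf stage at treatment: corn 2.0–3.5, green foxtail 1.0–3.0, rice 1.0–2.5, wheat 1.7–3.4; visual % inhibition at 17–23 DAT (0 = untreated, 100 = dead).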

[2] = test system: soybean (Glycine max Merr.); assay: Test Example 1: foliar treatment, growth inhibition rate, soybean; type: in vivo; settings: 31 g/ha active ingredient, visually observed 17th to 23rd day after application
Summary of the method: (§2)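 Visual scoring of growth inhibition, 0% (untreated) to 100% (complete kill), on days 17–23 following post-emergence spray of formulated compound in water (500 L/ha, 0.1 vol % spreader); plants treated at set leaf stages, e.g. corn 2.0–3.5, wheat 1.7–3.4.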

[3] = test system: wheat; assay: Test Example 2: soil application on the day after sowing, growth inhibition rate, wheat; type: in vivo, Triticum spp.; settings: 250 g/ha active ingredient, observed on 19th to 24th day
Summary of the method: (§3)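 Seeds were sown in upland field soil in pots, and on the following day compounds formulated as wettable powders or emulsifiable concentrates were diluted in water (500 liter per hectare) and sprayed onto the soil at prescribed active-ingredient doses. Growth was scored visually 19–24 days later, 0 = untreated to 100% = complete kill.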

[4] = test system: crabgrass; assay: Test Example 2: soil application on the day after sowing, growth inhibition rate, crabgrass; type: in vivo, Digitaria sanguinalis L.; settings: 250 g/ha active ingredient, observed on 19th to 24th day
Summary of the method: as §3

[5] = test system: velvetleaf (Abutilon theophrasti MEDIC.); assay: Test Example 1: foliar treatment, growth inhibition rate, velvetleaf; type: in vivo; settings: 31 g/ha active ingredient, visually observed 17th to 23rd day after application
Summary of the method: (§4)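 Plants grown in upland soil in pots were sprayed on the foliage at set leaf stages (corn 2.0–3.5, greenfoxtail 1.0–3.0, rice 1.0–2.5, wheat 1.7–3.4 leaves) with wettable powder or emulsifiable concentrate formulations diluted in water at 500 L/ha plus 0.1 vol % spreader. Growth inhibition was scored visually 17–23 days later.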

[6] = test system: redroot pigweed (Amaranthus retroflexus L.); assay: Test Example 1: foliar treatment, growth inhibition rate, redroot pigweed; type: in vivo; settings: 31 g/ha active ingredient, visually observed 17th to 23rd day after application
Summary of the method: as §2

[7] = test system: barnyardgrass; assay: Test Example 2: soil application on the day after sowing, growth inhibition rate, barnyardgrass; type: in vivo, Echinochloa crus-galli L.; settings: 250 g/ha active ingredient, observed on 19th to 24th day
Summary of the method: as §3

[8] = test system: greenfoxtail (Setaria viridis L.); assay: Test Example 1: foliar treatment, growth inhibition rate, greenfoxtail; type: in vivo; settings: 31 g/ha active ingredient, visually observed 17th to 23rd day after application
Summary of the method: as §1

[9] = test system: prickly sida; assay: Test Example 2: soil application on the day after sowing, growth inhibition rate, prickly sida; type: in vivo, Sida spinosa L.; settings: 250 g/ha active ingredient, observed on 19th to 24th day
Summary of the method: as §3

[10] = test system: crabgrass (Digitaria sanguinalis L.); assay: Test Example 1: foliar treatment, growth inhibition rate, crabgrass; type: in vivo; settings: 31 g/ha active ingredient, visually observed 17th to 23rd day after application
Summary of the method: as §2

[11] = test system: prickly sida (Sida spinosa L.); assay: Test Example 1: foliar treatment, growth inhibition rate, prickly sida; type: in vivo; settings: 31 g/ha active ingredient, visually observed 17th to 23rd day after application
Summary of the method: as §2

[12] = test system: velvetleaf; assay: Test Example 2: soil application on the day after sowing, growth inhibition rate, velvetleaf; type: in vivo, Abutilon theophrasti MEDIC.; settings: 250 g/ha active ingredient, observed on 19th to 24th day
Summary of the method: as §3

[13] = test system: greenfoxtail; assay: Test Example 2: soil application on the day after sowing, growth inhibition rate, greenfoxtail; type: in vivo, Setaria viridis L.; settings: 250 g/ha active ingredient, observed on 19th to 24th day
Summary of the method: as §3

[14] = test system: corn; assay: Test Example 2: soil application on the day after sowing, growth inhibition rate, corn; type: in vivo, Zea mays L.; settings: 250 g/ha active ingredient, observed on 19th to 24th day
Summary of the method: as §3

[15] = test system: rice; assay: Test Example 2: soil application on the day after sowing, growth inhibition rate, rice; type: in vivo, Oryza sativa L.; settings: 250 g/ha active ingredient, observed on 19th to 24th day
Summary of the method: as §3

[16] = test system: barnyardgrass (Echinochloa crus-galli L.); assay: Test Example 1: foliar treatment, growth inhibition rate, barnyardgrass; type: in vivo; settings: 31 g/ha active ingredient, visually observed 17th to 23rd day after application
Summary of the method: as §4

[17] = test system: soybean; assay: Test Example 2: soil application on the day after sowing, growth inhibition rate, soybean; type: in vivo, Glycine max Merr.; settings: 250 g/ha active ingredient, observed on 19th to 24th day
Summary of the method: as §3

[18] = test system: rice (Oryza sativa L.); assay: Test Example 1: foliar treatment, growth inhibition rate, rice; type: in vivo; settings: 31 g/ha active ingredient, visually observed 17th to 23rd day after application
Summary of the method: as §1

[19] = test system: redroot pigweed; assay: Test Example 2: soil application on the day after sowing, growth inhibition rate, redroot pigweed; type: in vivo, Amaranthus retroflexus L.; settings: 250 g/ha active ingredient, observed on 19th to 24th day
Summary of the method: as §3

[20] = test system: corn (Zea mays L.); assay: Test Example 1: foliar treatment, growth inhibition rate, corn; type: in vivo; settings: 31 g/ha active ingredient, visually observed 17th to 23rd day after application
Summary of the method: as §1

| SMILES | Growth inhibition rate (%) Wheat [1] [%] | Growth inhibition rate (%) Soybean [2] [%] | Growth inhibition rate (%) Wheat [3] [%] | Growth inhibition rate (%) Crabgrass [4] [%] | Growth inhibition rate (%) Velvetleaf [5] [%] | Growth inhibition rate (%) redroot pigweed [6] [%] | Growth inhibition rate (%) Barnyardgrass [7] [%] | Growth inhibition rate (%) Greenfoxtail [8] [%] | Growth inhibition rate (%) Prickly sida [9] [%] | Growth inhibition rate (%) Crabgrass [10] [%] | Growth inhibition rate (%) Prickly sida [11] [%] | Growth inhibition rate (%) Velvetleaf [12] [%] | Growth inhibition rate (%) Greenfoxtail [13] [%] | Growth inhibition rate (%) Corn [14] [%] | Growth inhibition rate (%) Rice [15] [%] | Growth inhibition rate (%) Barnyardgrass [16] [%] | Growth inhibition rate (%) Soybean [17] [%] | Growth inhibition rate (%) Rice [18] [%] | Growth inhibition rate (%) redroot pigweed [19] [%] | Growth inhibition rate (%) Corn [20] [%] |
| --- | --- | --- | --- | --- | --- | --- | --- | --- | --- | --- | --- | --- | --- | --- | --- | --- | --- | --- | --- | --- |
| COC(=O)c1c(S(C)(=O)=O)ccc(C(=O)c2cnn(C)c2OC(=O)SC)c1C [Compound No. 3] | 50 | 95 | 0 | 100 | 95 | 90 | 60 | 100 | 95 | 95 | 90 | 70 | 60 | 0 | 95 | 95 | 40 | 100 | 100 | 60 |
| CCCOc1c(S(C)(=O)=O)ccc(C(=O)c2cnn(CC)c2OC(=O)SCC)c1C [compound 67] | 10 | 90 | 0 | 70 | 90 | 95 | 60 | 100 | 70 | 98 | 60 | 60 | 40 | 0 | 60 | 95 | 20 | 60 | 50 | 10 |
| CCCSC(=O)Oc1c(C(=O)c2ccc(S(C)(=O)=O)c(OCCOC)c2C)cnn1C [compound 219] | 0 | 100 | 0 | 100 | 100 | 100 | 100 | 100 | 80 | 100 | 70 | 100 | 100 | 0 | 95 | 100 | 0 | 80 | 100 | 0 |
| CSC(=O)Oc1c(C(=O)c2ccc(S(C)(=O)=O)c(C3=NOCC3)c2C)cnn1C [compound 40] | 0 | 90 | 10 | 100 | 90 | 90 | 100 | 95 | 85 | 80 | 70 | 90 | 100 | 0 | 90 | 95 | 60 | 70 | 100 | 10 |
| CCSC(=O)Oc1c(C(=O)c2ccc(C(F)(F)F)cc2S(C)(=O)=O)cnn1CC [compound 68] | 0 | 70 | 0 | 60 | 80 | 75 | 100 | 60 | 95 | 40 | 70 | 100 | 30 | 0 | 100 | 95 | 40 | 60 | 98 | 10 |
| C=CCSC(=O)Oc1c(C(=O)c2ccc(S(C)(=O)=O)c(C(=O)OC)c2C)cnn1CC [compound 99] | 60 | 98 | 0 | 100 | 98 | 98 | 100 | 100 | 100 | 100 | 100 | 100 | 100 | 0 | 100 | 98 | 40 | 95 | 95 | 50 |
| C#CCOc1c(S(C)(=O)=O)ccc(C(=O)c2cnn(C)c2OC(=O)SCC)c1C [compound 222] | 0 | 100 | 0 | 100 | 60 | 100 | 95 | 80 | 50 | 70 | 30 | 80 | 80 | 0 | 90 | 90 | 0 | 70 | 100 | 0 |
